Experimental data as given in US6608086B2, “Dihydropyridines and new uses thereof” (Synaptic Pharmaceutical Corporation, priority 1993, dated 2003).
Read-outs that look alike come from different tables or passages of the source.

Columns and labels:
α2A receptor = molecular target: T1, α2A receptor (Homo sapiens, UniProt P08913); assay: Competition binding, [3H]rauwolscine, human α2A receptor; details: [3H]rauwolscine, human α2A receptor, LM(tk−) cells; for Ki: read-out: pKi alpha-2 2a (converted)
T1 construct: host or cells: LM(tk-) cells, line L-α2A
T1 sequence (P08913 1-465): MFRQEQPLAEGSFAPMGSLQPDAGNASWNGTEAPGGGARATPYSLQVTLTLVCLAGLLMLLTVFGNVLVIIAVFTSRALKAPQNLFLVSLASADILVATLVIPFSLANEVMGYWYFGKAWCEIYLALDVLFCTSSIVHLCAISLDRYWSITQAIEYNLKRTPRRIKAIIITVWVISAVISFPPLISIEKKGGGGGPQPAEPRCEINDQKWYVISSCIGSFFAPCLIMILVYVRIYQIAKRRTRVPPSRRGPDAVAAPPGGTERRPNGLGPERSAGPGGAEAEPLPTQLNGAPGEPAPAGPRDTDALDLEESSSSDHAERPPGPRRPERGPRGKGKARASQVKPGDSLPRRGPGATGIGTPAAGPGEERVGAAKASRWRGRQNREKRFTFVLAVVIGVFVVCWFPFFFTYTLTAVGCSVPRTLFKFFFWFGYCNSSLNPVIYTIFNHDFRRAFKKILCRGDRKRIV
Summary of the method: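 Cell lysates from stably transfected LM(tk−) lines are resuspended in 25 mM glycylglycine (pH 7.6 at room temperature), incubated to equilibrium with 0.5 nM [3H]rauwolscine plus competitor, then filtered through GF/B filters; 10 μM phentolamine defines nonspecific binding.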

[1] = molecular target: T2, α1C Human Adrenergic Receptor (Homo sapiens, UniProt P35348); assay: Radioligand binding, [3H]prazosin, cloned human α1C adrenergic receptor; details: cloned human α1C receptor, LM(tk−) cell membranes
T2 construct: The entire coding region of α1C (1401 bp); expressed in transfected cells
T2 sequence (P35348 1-466): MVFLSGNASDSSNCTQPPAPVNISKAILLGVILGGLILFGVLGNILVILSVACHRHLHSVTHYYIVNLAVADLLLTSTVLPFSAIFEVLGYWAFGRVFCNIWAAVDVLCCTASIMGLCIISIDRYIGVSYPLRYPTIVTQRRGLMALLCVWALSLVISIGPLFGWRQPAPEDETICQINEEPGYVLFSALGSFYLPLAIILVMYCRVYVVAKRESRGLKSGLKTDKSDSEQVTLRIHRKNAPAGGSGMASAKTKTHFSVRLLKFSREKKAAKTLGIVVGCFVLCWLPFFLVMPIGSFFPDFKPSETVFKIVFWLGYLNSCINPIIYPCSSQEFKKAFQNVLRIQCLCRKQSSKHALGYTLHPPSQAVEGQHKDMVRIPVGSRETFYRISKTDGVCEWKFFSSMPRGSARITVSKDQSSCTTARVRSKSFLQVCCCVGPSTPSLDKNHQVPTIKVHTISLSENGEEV
Summary of the method: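 LM(tk−) membranes (stable human α1C); [3H]prazosin 0.5 nM; 37° C., 20 min; Tris-HCl 50 mM/MgCl2 1 mM/ascorbate 0.1%, pH 7.5; NSB 10 μM phentolamine; GF/B filtration.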

[2] = molecular target: T3, α1B Human Adrenergic Receptor (Homo sapiens, UniProt P35368); assay: Radioligand binding, [3H]prazosin, cloned human α1B adrenergic receptor; details: cloned human α1B receptor, LM(tk−) cell membranes
T3 construct: The entire coding region of α1B (1563 bp); expressed in transfected cells
T3 sequence (P35368 1-520): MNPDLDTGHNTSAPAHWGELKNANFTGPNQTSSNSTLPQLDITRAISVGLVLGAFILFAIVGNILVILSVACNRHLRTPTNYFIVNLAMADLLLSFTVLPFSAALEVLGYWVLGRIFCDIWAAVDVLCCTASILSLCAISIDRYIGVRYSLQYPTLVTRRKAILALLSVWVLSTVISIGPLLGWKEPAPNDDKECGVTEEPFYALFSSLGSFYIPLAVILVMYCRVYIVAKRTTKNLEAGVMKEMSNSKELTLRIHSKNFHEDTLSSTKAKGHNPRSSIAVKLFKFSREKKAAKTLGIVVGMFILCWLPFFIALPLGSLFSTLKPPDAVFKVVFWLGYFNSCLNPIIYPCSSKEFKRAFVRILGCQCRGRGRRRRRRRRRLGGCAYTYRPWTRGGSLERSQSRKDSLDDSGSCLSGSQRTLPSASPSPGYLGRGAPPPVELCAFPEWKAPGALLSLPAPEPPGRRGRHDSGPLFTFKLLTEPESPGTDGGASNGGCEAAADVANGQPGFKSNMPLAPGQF
Summary of the method: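 [3H]prazosin (0.5 nM) binding was run for 20 min at 37° C in pH 7.5 Tris/MgCl2/ascorbate buffer on membranes of LM(tk−) cells stably expressing the cloned receptor. Filtration through GF/B ended the reaction; 10 μM phentolamine gave nonspecific binding.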

[3] = read-out: pKi alpha-1 1c (converted)
[4] = read-out: pKi alpha-1 1b (converted)

Molecule `CC1=C(C(N)=O)C(c2ccc(S(C)(=O)=O)cc2)C(C(=O)NCCCN2CCC(c3ccccc3)(c3ccccc3)CC2)=C(C)N1` (stereo not drawn) [Example 115, 5-Carboxamido-1,4-4-dihydro-4-(4-methanesufonylphenyl)-2,6-dimethyl-3-(N-(3-(4,4-diphenylpiperidin-1-yl)propyl)carboxamido)-pyridine] has a Ki (α2A receptor) of 3980 nM, a Ki ([1]; pKi alpha-1 1c) of 58.9 nM and a Ki ([2]; pKi alpha-1 1b) of 1450 nM.

For `CCC1=C(C(N)=O)C(c2ccc(S(C)(=O)=O)cc2)C(C(=O)NCCCN2CCC(c3ccccc3)(c3ccccc3)CC2)=C(CC)N1` (stereo not drawn) [Example 116, 5-Carboxamido-2,6-diethyl-1,4-dihydro-4-(4-methanesulfonylphenyl)-3-(N-(3-(4,4-diphenylpiperidin-1-yl)propyl)carboxamido)-pyridine], the Ki (α2A receptor) was 1450 nM, the Ki ([1]; pKi alpha-1 1c) was 3.89 nM and the Ki ([2]; pKi alpha-1 1b) was 759 nM.

`COc1cccc(C2C(C(N)=O)=C(C)NC(C)=C2C(=O)NCCCN2CCC(c3ccccc3)(c3ccccc3)CC2)c1` (stereo not drawn) [Example 117, 5-Carboxamido-1,4-dihydro-4-(3-Methoxyphenyl)-2,6-dimethyl-3-(N-(3-(4,4-diphenylpiperidin-1-yl)propyl)carboxamido)-pyridine] was tested, and the Ki (α2A receptor) was 955 nM, the Ki ([1]; pKi alpha-1 1c) was 27.5 nM and the Ki ([2]; pKi alpha-1 1b) was 562 nM.

`CCC1=C(C(N)=O)C(c2ccc(S(C)(=O)=O)cc2)C(C(=O)NCCCN2CCC(c3ccccc3)(c3ccccc3)CC2)=C(C)N1` (stereo not drawn) [Example 118, 3-Carboxamido-2-ethyl-1,4-dihydro-4-(4-methanesulfonylphenyl)-6-methyl-3-(N-(3-(4,4-diphenylpiperidin-1-yl)propyl)carboxyamido)-pyridine] showed a Ki (α2A receptor) of 3890 nM, a Ki ([1]; pKi alpha-1 1c) of 9.55 nM and a Ki ([2]; pKi alpha-1 1b) of 1780 nM.

`CCC1=C(C(N)=O)C(c2ccc([N+](=O)[O-])cc2)C(C(=O)NCCCN2CCN(c3ccccc3OC)CC2)=C(CC)N1` (stereo not drawn) [Example 125, 5-Carboxamido-2,6-diethyl-1,4-dihydro-3-(N-{3-[4-(2-methoxyphenyl)piperazin-1-yl]propyl})carboxamido-4-(4-nitrophenyl)pyridine] gave a Ki (α2A receptor) of 26.9 nM, a Ki [1, 3] of 1.15 nM and a Ki [2, 4] of 129 nM.

For `CC(C)C1=C(C(N)=O)C(c2ccc([N+](=O)[O-])cc2)C(C(=O)NCCCN2CCC(c3ccccc3)(c3ccccc3)CC2)=C(C(C)C)N1` (stereo not drawn) [Example 127], the “pKi alpha-2 2a” value (α2A receptor) was 6.17, the Ki ([1]; pKi alpha-1 1c) was 55 nM and the “pKi alpha-1 1b” value [2] was 6.79.

`CCC1=C(C(=O)NC)C(c2ccc([N+](=O)[O-])cc2)C(C(=O)NCCCN2CCC(c3ccccc3)(c3ccccc3)CC2)=C(CC)N1` (stereo not drawn) [Example 128, 2,6-Diethyl-1,4-dihydro-5-(N-methyl)carboxamido-4-(4-nitrophenyl)-3-{N-[3-(4,4-diphenylpiperidin-1-yl)propyl]}carboxamidopyridine] gave a Ki (α2A receptor) of 457 nM, a Ki ([1]; pKi alpha-1 1c) of 3.39 nM and a Ki ([2]; pKi alpha-1 1b) of 1050 nM.

With `CCC1=C(C(=O)OCCC#N)C(c2ccc([N+](=O)[O-])cc2)C(C(=O)NCCCN2CCC(c3ccccc3)(c3ccccc3)CC2)=C(COC)N1` (stereo not drawn) [Example 135] the Ki (α2A receptor) was 661 nM, the Ki [1, 3] was 105 nM and the Ki [2, 4] was 178 nM.

`CCC1=C(C(=O)NCCCN2CCC(c3ccccc3)(c3ccccc3)CC2)C(c2ccc([N+](=O)[O-])cc2)C(C(=O)OC(C)(C)C)=C(COCCN=[N+]=[N-])N1` (stereo not drawn) [Example 139] was tested, and the Ki (α2A receptor) was 832 nM, the Ki ([1]; pKi alpha-1 1c) was 23.4 nM and the Ki ([2]; pKi alpha-1 1b) was 141 nM.

`CCC1=C(C(=O)OCCC#N)C(c2ccc([N+](=O)[O-])cc2)C(C(=O)NCCCN2CCC(c3ccccc3)(c3ccccc3)CC2)=C(COCCN=[N+]=[N-])N1` (stereo not drawn) [Example 141] gave a Ki (α2A receptor) of 603 nM, a Ki ([1]; pKi alpha-1 1c) of 5.37 nM and a Ki ([2]; pKi alpha-1 1b) of 33.1 nM.

With `CCNC(=O)C1=C(COCCN=[N+]=[N-])NC(CC)=C(C(=O)NCCCN2CCC(c3ccccc3)(c3ccccc3)CC2)C1c1ccc([N+](=O)[O-])cc1` (stereo not drawn) [Example 147, 2-((2-Azidoethyl)oxy)methyl-6-ethyl-3-(N-ethyl)carboxamido-1,4-dihydro-4-(4-nitro)phenyl-5-(N-(3-(4,4-diphenylpiperidin-1-yl-)propyl))carboxamidopyridine] the Ki (α2A receptor) was 871 nM, the Ki ([1]; pKi alpha-1 1c) was 11 nM and the Ki ([2]; pKi alpha-1 1b) was 257 nM.

`CCC1=C(C(=O)NCCCN2CCC(c3ccccc3)(c3ccccc3)CC2)C(c2ccc([N+](=O)[O-])cc2)C(C(N)=O)=C(COCCN=[N+]=[N-])N1` (stereo not drawn) [Example 149, 2-((2-Azidoethyl)oxy)methyl-3-carboxamido-6-ethyl-1,4-dihydro-4-(4-nitro) phenyl-5-(N-(3-(4,4-diphenylpiperidin-1-yl)propyl))carboxamidopyridine] was tested, and the Ki (α2A receptor) was 501 nM, the Ki ([1]; pKi alpha-1 1c) was 5.5 nM and the Ki ([2]; pKi alpha-1 1b) was 245 nM.

`CCC1=C(C(=O)NCCCN2CCC(c3ccccc3)(c3ccccc3)CC2)C(c2ccc([N+](=O)[O-])cc2)C(C(=O)NC)=C(COCCN=[N+]=[N-])N1` (stereo not drawn) [Example 151, 2-((2-Azidoethyl)oxy)methyl-6-ethyl-1,4-dihydro-3-(N-methyl)carboxamido-4-(4-nitro)phenyl-5-(N-(3-(4,4-diphenylpiperidin-1-yl)propyl))carboxamidopyridine] showed a Ki (α2A receptor) of 562 nM, a Ki ([1]; pKi alpha-1 1c) of 12.3 nM and a Ki ([2]; pKi alpha-1 1b) of 355 nM.

Work on `CC1=C(C(=O)NCCCN2CCC(c3ccccc3)(c3ccccc3)CC2)C(c2ccc([N+](=O)[O-])cc2)C(C(=O)NC(C)C)=C(C)N1` (stereo not drawn) [Example 156, 1,4-Dihydro-3-(N-isopropyl) carboxamido-2,6-dimethyl-4-(4-nitrophenyl)-5-{N-[3-(^414-diphenylpiperidin-1-yl)propyl]}carboxamidopyridine] yielded a Ki (α2A receptor) of 316 nM, a Ki ([1]; pKi alpha-1 1c) of 95.5 nM and a Ki ([2]; pKi alpha-1 1b) of 676 nM.

In the case of `CC1=C(C(=O)NCCCN2CCC(c3ccccc3)(c3ccccc3)CC2)C(c2ccc([N+](=O)[O-])cc2)C(C(=O)OCCC#N)=C(C)N1` (stereo not drawn) [Example 160], the Ki (α2A receptor) is reported as 457 nM, the Ki [1, 3] is reported as 7.94 nM and the Ki ([2]; pKi alpha-1 1b) is reported as 138 nM.

`CNC(=O)C1=C(C)NC(C)=C(C(=O)NCCCN2CCC(O)(c3ccccc3)CC2)C1c1ccc([N+](=O)[O-])cc1` (stereo not drawn) [Example 162, 1,4-Dihydro-3-{N-[3-(4-hydroxy-4-phenylpiperidin-1-yl)propyl]}carboxamido-2,6-dimethyl-5-(N-methyl)carboxamido-4-(4-nitrophenyl)pyridine] gave a Ki (α2A receptor) of 631 nM, a Ki ([1]; pKi alpha-1 1c) of 11.5 nM and a Ki ([2]; pKi alpha-1 1b) of 257 nM.
